The text below walks through data of patent publication US20250241913A1, “COMBINATION THERAPIES BASED ON PD-1 INHIBITORS AND SIK3 INHIBITORS” (iOmx Therapeutics AG, priority 2022, published 2025).

The subject of assay [1] is MC38 tumor cells. The assay is described as follows: MC38 tumor model, subcutaneous, tumor growth, survival and flow cytometry of tumor infiltrating cells. The assay is classed as in vivo, C57BI6/N mice. How it is done: FIG. 3: (A) Average tumor growth kinetics and overall survival monitored for the MC38 tumor model after treatment start. Treatment regimes are indicated by indeces 1 to 4 in the figure and represent: (1) 10 ml/kg vehicle+10 mg/kg mIgG1e ctrl. (2) 10 ml/kg vehicle+10 mg/kg α-muPD-1 (3) 25 mg/kg compound E9+10 mg/kg mIgG1e ctrl. and (4) 25 mg/kg compound E9+10 mg/kg α-mu-PD-1 (B) Tumor infiltrating cytotoxic T cells (CTL), CTL to regulatory T cell ratio, tumor associated M2-macrohages (M2-TAM) and M2-like TAM were analyzed by flow cytometry.
MC38 tumor cells were subcutaneously implanted in C57BI6/N mice, randomized at an average tumor volume of 100 mm^3 and tumor bearing mice were treated twice daily with 25 mg/kg compound E9 by oral gavage and twice weekly, intraperitoneal with 10 mg/kg anti-murine-PD-1 mAb (clone: RMP1-14) or corresponding controls.
(Flow cytometry measures light scatter and fluorescence of single cells or particles in a stream.)

In assay [2] the test system is KLN205 tumor cells. In words: KLN205 lung squamous cell carcinoma model, subcutaneous, tumor growth. The assay is classed as in vivo, DBA/2 mice. Conditions: compared to control, E9 25 mg/kg twice daily oral, anti-murine-PD-1 mAb 10 mg/kg twice weekly i.p. On the procedure: FIG. 4: (A) Average tumor growth kinetics and overall survival monitored for the EMT6 tumor model after treatment start. […] Treatment regimes are indicated by indeces 1 to 4 in the figure and represent: (1) 10 ml/kg vehicle+10 mg/kg mIgG1e ctrl. (2) 10 ml/kg vehicle+10 mg/kg α-mu-PD-1 (3) 12.5 mg/kg compound E9+10 mg/kg mIgG1e ctrl. and (4) 12.5 mg/kg compound E9+10 mg/kg α-mu-PD-1 (B) Average tumor growth kinetics for the KLN205 tumor model upon initiation of therapy; Treatment regimes are indicated by indeces 1 to 4 in the figure and represent: (1) 10 ml/kg vehicle+10 mg/kg mIgG1e ctrl. (2) 10 ml/kg vehicle+10 mg/kg α-mu-PD-1 (3) 25 mg/kg compound E9+10 mg/kg mIgG1e ctrl. And (4) 25 mg/kg compound E9+10 mg/kg α-mu-PD-1.
EMT6 tumor cells were implanted into mammary fat pad in BALB/c mice and randomized at an average tumor volume of 65mm^3. KLN205 tumor cells were subcutaneously implanted in DBA/2 mice and randomized at an average tumor volume of 60 mm^3. Both animal models were treated twice daily by oral gavage with the indicated doses of compound E9 and twice weekly, intraperitoneal with 10 mg/kg anti-murine-PD-1 mAb (clone: RMP1-14) or corresponding controls.

The mark [3] stands for this setting: monotherapy, 25 mg/kg E9 twice daily by oral gavage.

For the compound `Cc1nc(Nc2ncc(C(=O)Nc3c(CF)csc3Cl)s2)cc(N2CCN(C)CC2)n1` [E9, N-(2-chloro-4-(fluoromethyl)thiophen-3-yl)-2-((2-methyl-6-(4-methylpiperazin-1-yl)pyrimidin-4-yl)amino)thiazole-5-carboxamide], in assay [1] (flow cytometry), the “CTL to Treg ratio” value is given as “promotion”, the “cytotoxic T lymphocyte (CTL) activity” value is “activating”, the “immunosuppressive myeloid cells in tumour microenvironment” value is on record as “reducing” and the “regulatory T cells (Treg) in tumour microenvironment” value is “reducing”. Moreover, in assay [1] (setting [3]), the anti-tumor efficacy result is on record as “highly significant anti-tumor efficacy” and the survival result is on record as “prolonged survival”. In assay [2], the “Growth inhibition (TGI)” value is 22%.
